Measurements: patent US9637491B2, “Pyrazolo[4,3-D]pyrimidines as kinase inhibitors” (Origenis GmbH, priority 2012, dated 2017)

target: T1, SYK kinase (Homo sapiens, UniProt P43405); assay: SYK assay (OMNIA Kinase Assay, Invitrogen); assay type: biochemical; details: SYK Activities; 1 mM ATP, 10 μM Omnia Peptide Substrate Tyr 7, 30° C.
T1 construct: purchased Invitrogen, Carlsbad
How it was run: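 SYK was added last to start phosphorylation of a chelation-enhanced SOX peptide substrate (10 μM) in the presence of 1 mM ATP and 0.2 mM DTT at 30° C. Kinetic readings at λex 360/λem 485 nm over 30 min gave velocities, fitted sigmoidally against compound concentration to give IC50.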

IC50 [nM] | SMILES
10 to 100 | O=C1CCCc2ccc(Nc3nc(-c4ccoc4)nc4cn[nH]c34)cc2N1 [Example 107, 8-((5-(furan-3-yl)-1H-pyrazolo[4,3-d]pyrimidin-7-yl)amino)-4,5-dihydro-1H-benzo[b]azepin-2(3H)-one]
100 to 1000 | CN1CCN(C(=O)c2ccc(Nc3nc(-c4c(F)cccc4F)nc4cn[nH]c34)cc2)CC1 [Example 500, (4-((5-(2,6-difluorophenyl)-1H-pyrazolo[4,3-d]pyrimidin-7-yl)amino)phenyl)(4-methylpiperazin-1-yl)methanone]
100 to 1000 | Fc1cc(Nc2nc(-c3ccno3)nc3cn[nH]c23)ccc1N1CCOCC1 [Example 70, N-(3-fluoro-4-morpholinophenyl)-5-(isoxazol-5-yl)-1H-pyrazolo[4,3-d]pyrimidin-7-amine]
< 10 | OCCn1cc(Nc2nc(-c3ccoc3)nc3cn[nH]c23)cn1 [Example 242, 2-(4-((5-(furan-3-yl)-1H-pyrazolo[4,3-d]pyrimidin-7-yl)amino)-1H-pyrazol-1-yl)ethan-1-ol]
100 to 1000 | COCCn1cc(Nc2nc(-c3cccc(NS(C)(=O)=O)c3)nc3cn[nH]c23)cn1 [Example 265, N-(3-(7-((1-(2-methoxyethyl)-1H-pyrazol-4-yl)amino)-1H-pyrazolo[4,3-d]pyrimidin-5-yl)phenyl)methanesulfonamide]
10 to 100 | CC(C)(C)n1cc(Nc2nc(C3CCC3)nc3cn[nH]c23)cn1 [Example 222, N-(1-(tert-butyl)-1H-pyrazol-4-yl)-5-cyclobutyl-1H-pyrazolo[4,3-d]pyrimidin-7-amine]
10 to 100 | CN1CCC(n2cc(Nc3nc(C4CC4)nc4cn[nH]c34)cn2)CC1 [Example 207, 5-cyclopropyl-N-(1-(1-methylpiperidin-4-yl)-1H-pyrazol-4-yl)-1H-pyrazolo[4,3-d]pyrimidin-7-amine]
100 to 1000 | COCCn1cc(Nc2nc(-c3cocn3)nc3cn[nH]c23)cn1 [Example 128, N-(1-(2-methoxyethyl)-1H-pyrazol-4-yl)-5-(oxazol-4-yl)-1H-pyrazolo[4,3-d]pyrimidin-7-amine]
10 to 100 | CC(C)Cn1cc(Nc2nc(-c3cccs3)nc3cn[nH]c23)cn1 [Example 432, N-(1-isobutyl-1H-pyrazol-4-yl)-5-(thiophen-2-yl)-1H-pyrazolo[4,3-d]pyrimidin-7-amine]
100 to 1000 | CC(=O)N1CCN(c2ccc(Nc3nc(-c4c(F)cccc4F)nc4cn[nH]c34)cc2)CC1 [Example 13, 1-(4-(4-((5-(2,6-difluorophenyl)-1H-pyrazolo[4,3-d]pyrimidin-7-yl)amino)phenyl)piperazin-1-yl)ethan-1-one]
